In patent US11066414B2, “Cot modulators and methods of use thereof” (Gilead Sciences, Inc., priority 2015, dated 2021):
Like-named read-outs stand apart in the source and are kept apart here.

Tests used:
[1] = tested on: TNFα; assay: Cot Monocyte TNFα Cell Based Assay
Method: The cell suspension was then plated at a density of 5,000 cells/well onto black 384 well Greiner clear bottom plates. Plates were pre-spotted with test compounds and serially diluted in DMSO where 200 nL/well were delivered using the Echo 550 acoustic liquid dispenser (Labcyte®) for a final DMSO concentration of 0.5%. Plated cells were treated with compound for 1 hour at 37° C. Cells were then stimulated with 50 pg/ml of LPS (Sigma) excluding outside columns of plate used for unstimulated cell control wells. Cells were incubated for an additional 4 hours at 37° C. Cells were then spun out of the media and 5 μl of sample were taken and analyzed for total TNFα content using the TR-FRET Human TNFα detection system (CisBio). This system utilizes two labeled antibodies (cryptate and XL665) that bind to two different epitopes of the TNFα molecule and produce FRET signal proportional to the concentration of TNFα in the sample. […] Plates were covered with clear seals and incubated at room temp overnight. […] Percent of control was calculated as follows: % Control=100×(RatioSample−Ratio0% Stimulation)/(Ratio100% Stimulation−Ratio0% Stimulation) where unstimulated cells (0% stimulation) were the negative control and stimulated cells (100% stimulation) were used as the positive control.

[2] = target: Human Cot (Homo sapiens (Human), UniProt P41279); assay: High Throughput Cot Biochemical Assay
[3] = Homo sapiens, Monocyte, read-out: EC50 TNF, LPS-stimulated human monocytes, TNFα
[4] = IC50 HTRF, Cot HTRF (TR-FRET) biochemical assay
[5] = read-out: EC50 TNF, LPS-stimulated human monocytes, TNFα TR-FRET
[6] = read-out: IC50 HTRF, Cot HTRF (TR-FRET KinEASE) biochemical assay, 400 μM ATP

Chain of Human Cot (P41279 30-397): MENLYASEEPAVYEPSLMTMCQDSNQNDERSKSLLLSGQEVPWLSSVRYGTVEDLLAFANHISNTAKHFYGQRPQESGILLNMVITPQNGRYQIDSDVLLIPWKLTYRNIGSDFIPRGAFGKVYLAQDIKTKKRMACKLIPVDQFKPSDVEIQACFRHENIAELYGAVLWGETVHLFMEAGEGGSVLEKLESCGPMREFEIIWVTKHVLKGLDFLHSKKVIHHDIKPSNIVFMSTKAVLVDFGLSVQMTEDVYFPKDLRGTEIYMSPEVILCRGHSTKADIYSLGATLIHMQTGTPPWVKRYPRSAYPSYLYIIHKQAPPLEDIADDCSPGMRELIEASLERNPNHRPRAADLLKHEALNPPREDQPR

With `CC(C)(C)CNc1c(C#N)cnc2c(Cl)cc(N[C@H](c3cn(C4(C#N)CC4)nn3)c3cccc4ncccc34)cc12` [Example 567, (S)-8-chloro-6-(((1-(1-cyanocyclopropyl)-1H-1,2,3-triazol-4-yl)(quinolin-5-yl)methyl)amino)-4-(neopentylamino)-quinoline-3-carbonitrile] the EC50 [1, 3] was 0.066 µM and the IC50 [2, 4] was 0.002 µM.

With `[2H]C([2H])([2H])n1ccc2c([C@H](Nc3cc(Cl)c4ncc(C#N)c(NCC(C)(C)C)c4c3)c3cn(C45CC(C4)C5)nn3)cccc2c1=O` [Example 711, (S)-6-(((1-(bicyclo[1.1.1]pentan-1-yl)-1H-1,2,3-triazol-4-yl)(2-(methyl-d3)-1-oxo-1,2-dihydroisoquinolin-5-yl)methyl)amino)-8-chloro-4-(neopentylamino)quinoline-3-carbonitrile] the EC50 [1, 3] was 0.032 µM and the IC50 [2, 4] was 0.002 µM.

In the case of `COc1nccc2c([C@H](Nc3cc(C#N)c4ncc(C#N)c(NCC(C)(C)C)c4c3)c3cn(C4(C)CC4)nn3)cccc12` [Example 809, (S)-6-(((1-methoxylsoquinolin-5-yl)(1-(1-methylcyclopropyl)-1H-1,2,3-triazol-4-yl)methyl)amino)-4-(neopentylamino)quinoline-3,8-dicarbonitrile], the EC50 [1, 5] is reported as 0.032 µM and the IC50 [2, 6] is reported as 0.003 µM.

`Cc1nc(F)ccc1[C@H](Nc1cc(C#N)c2ncc(C#N)c(NCC(C)(C)C)c2c1)c1cn(C2(C(C)C)CC2)nn1` [Example 851, (S)-6-(((6-fluoro-2-methylpyridin-3-yl)(1-(1-isopropylcyclopropyl)-1H-1,2,3-triazol-4-yl)methyl)amino)-4-(neopentylamino)quinoline-3,8-dicarbonitrile] was tested, and the EC50 ([1]; Homo sapiens, Monocyte, read-out: EC50 TNF, LPS-stimulated human monocytes, TNFα TR-FRET) was 0.021 µM and the IC50 ([2]; IC50 HTRF, Cot HTRF (TR-FRET KinEASE) biochemical assay, 400 μM ATP) was 0.003 µM.

In the case of `COC[C@H](Nc1c(C#N)cnc2c(Cl)cc(N[C@@H](c3cccnc3)c3c[nH]nn3)cc12)c1ccccc1` [Example 203, 8-chloro-4-(((R)-2-methoxy-1-phenylethyl)amino)-6-(((S)-pyridin-3-yl(1H-1,2,3-triazol-4-yl)methyl)amino)quinoline-3-carbonitrile], the EC50 [1, 3] is reported as 9.09 µM and the IC50 [2, 4] is reported as 6.92 µM.

`CC(C)(C)CNc1c(C#N)cnc2c(C#N)cc(N[C@H](c3cn(C4(C(F)(F)F)CC4)nn3)c3cccn4nccc34)cc12` [Example 572, (S)-4-(neopentylamino)-6-((pyrazolo[1,5-a]pyridin-4-yl(1-(1-(trifluoromethyl)cyclo-propyl)-1H-1,2,3-triazol-4-yl)methyl)amino)quinoline-3,8-dicarbonitrile] gave an EC50 [1, 3] of 0.079 µM and an IC50 [2, 4] of 0.004 µM.

`Cn1ccc2c([C@H](Nc3cc(Cl)c4ncc(C#N)c(NCC(C)(C)C)c4c3)c3cn(C4(C)CC4)nn3)cccc2c1=O` [Example 776, (S)-8-chloro-6-(((2-methyl-1-oxo-1,2-dihydroisoquinolin-5-yl)(1-(1-methylcyclopropyl)-1H-1,2,3-triazol-4-yl)methyl)amino)-4-(neopentylamino)quinoline-3-carbonitrile] was tested, and the EC50 [1, 3] was 0.024 µM and the IC50 [2, 4] was 0.002 µM.

`CC(C)(C)CNc1c(C#N)cnc2c(C#N)cc(N[C@H](c3cn(C4(C)CC4)nn3)c3cccc4cnccc34)cc12` [Example 581, (S)-6-((isoquinolin-5-yl(1-(1-methylcyclo-propyl)-1H-1,2,3-triazol-4-yl)methyl)amino)-4-(neopentylamino)quinoline-3,8-dicarbonitrile] showed an EC50 [1, 3] of 0.032 µM and an IC50 [2, 4] of 0.002 µM.

Work on `COc1nccc2c([C@H](Nc3cc(Cl)c4ncc(C#N)c(NCC(C)(C)C(F)(F)F)c4c3)c3cn(C4(C)CC4)nn3)cccc12` [Example 927, (S)-8-chloro-6-(((1-methoxylsoquinolin-5-yl)(1-(1-methylcyclopropyl)-1H-1,2,3-triazol-4-yl)methyl)amino)-4-((3,3,3-trifluoro-2,2-dimethylpropyl)amino)quinoline-3-carbonitrile] yielded an EC50 [1, 5] of 0.124 µM and an IC50 [2, 6] of 0.006 µM.

`CC[C@@H](Nc1c(C#N)cnc2c(Cl)cc(N[C@@H](c3cccnc3)c3cn(CCCN4CCCC4)nn3)cc12)c1ccccc1` [Example 176, 8-chloro-4-(((R)-1-phenylpropyl)amino)-6-(((S)-pyridin-3-yl(1-(3-(pyrrolidin-1-yl)propyl)-1H-1,2,3-triazol-4-yl)methyl)amino)quinoline-3-carbonitrile] was tested, and the EC50 [1, 3] was 0.031 µM and the IC50 [2, 4] was 0.002 µM.

Molecule `N#Cc1cnc2c(Cl)cc(N[C@H](c3c[nH]nn3)c3cnccc3Cl)cc2c1Nc1cnc(F)c(F)c1` [Example 153, (S)-8-chloro-6-(((4-chloropyridin-3-yl)(1H-1,2,3-triazol-4-yl)methyl)amino)-4-((5,6-difluoropyridin-3-yl)amino)quinoline-3-carbonitrile] has an EC50 [1, 3] of 3.76 µM and an IC50 [2, 4] of 0.044 µM.

`CC(C)(C)CNc1c(C#N)cnc2c(Cl)cc(N[C@H](c3cn(C4(C(N)=O)CC4)nn3)c3cccc4cnccc34)cc12` [Example 561, (S)-1-(4-(((8-chloro-3-cyano-4-(neopentylamino)quinolin-6-yl)amino) (isoquinolin-5-yl)methyl)-1H-1,2,3-triazol-1-yl)cyclopropane-1-carboxamide] was tested, and the EC50 [1, 3] was 0.433 µM and the IC50 [2, 4] was 0.002 µM.

With `CC(C)(C)CNc1c(C#N)cnc2c(Cl)cc(N[C@H](c3cn(C4CC4)nn3)c3cccc4[nH]ncc34)cc12` [Example 448, (S)-8-chloro-6-(((1-cyclopropyl-1H-1,2,3-triazol-4-yl)(1H-indazol-4-yl)methyl)-amino)-4-(neopentylamino)quinoline-3-carbonitrile] the EC50 [1, 3] was 0.044 µM and the IC50 [2, 4] was 0.002 µM.

`CC(C)(C)CNc1c(C#N)cnc2c(Cl)cc(N[C@H](c3cn(C4(CF)CC4)nn3)c3cccc4ccncc34)cc12` [Example 594, (S)-8-chloro-6-(((1-(1-(fluoromethyl)cyclopropyl)-1H-1,2,3-triazol-4-yl)(isoquinolin-8-yl)methyl)amino)-4-(neopentylamino)quinoline-3-carbonitrile] gave an EC50 [1, 3] of 0.033 µM and an IC50 [2, 4] of 0.002 µM.

Work on `Cn1nccc1[C@H](Nc1cc(Cl)c2ncc(C#N)c(Nc3ccc(F)c(Cl)c3)c2c1)c1cn(C2CCN(C(C)(C)C)CC2)nn1` [Example 305, (S)-6-(((1-(1-(tert-butyl)piperidin-4-yl)-1H-1,2,3-triazol-4-yl)(1-methyl-1H-pyrazol-5-yl)methyl)amino)-8-chloro-4-((3-chloro-4-fluorophenyl)amino)quinoline-3-carbonitrile] yielded an EC50 [1, 3] of 0.084 µM and an IC50 [2, 4] of 0.003 µM.

With `[2H]C(Nc1cc(Cl)c2ncc(C#N)c(N[C@H](CCC#N)c3ccccc3)c2c1)(c1ccc(F)nc1)c1cn(C2CC2)nn1` (stereo partly drawn) [Example 89, 8-chloro-4-(((R)-3-cyano-1-phenylpropyl)amino)-6-(((1-cyclopropyl-1H-1,2,3-triazol-4-yl)(6-fluoropyridin-3-yl)methyl-d)amino)quinoline-3-carbonitrile] the EC50 [1, 3] was > 1 µM and the IC50 [2, 4] was 0.52 µM.

For `N#Cc1cnc2c(Cl)cc(N[C@@H](C3=CCOCC3)c3c[nH]nn3)cc2c1Nc1ccc(Cl)c(Cl)c1F` [Example 211, (S)-8-chloro-4-((3,4-dichloro-2-fluorophenyl)amino)-6-(((3,6-dihydro-2H-pyran-4-yl)(1H-1,2,3-triazol-4-yl)methyl)amino)quinoline-3-carbonitrile], the EC50 [1, 3] was 0.544 µM and the IC50 [2, 4] was 0.016 µM.

`Cc1nc(F)ccc1[C@H](Nc1cc(Cl)c2ncc(C#N)c(NCC(C)(C)C(F)(F)F)c2c1)c1nnn(C2(C3CC3)CC2)c1F` [Example 957] showed an EC50 [1, 5] of 0.054 µM and an IC50 [2, 6] of 0.005 µM.
